Results taken from patent US20130266663A1, “SOX9 INHIBITORS” (priority 2010, published 2013).

What was measured:
SOX9 target genes [1] = test: Short-term SOX9 target gene expression (Q-PCR) in injured cord after SCI; type: in vivo; conditions: rat SCI, 2 mg/kg ip 2 hours after injury, sacrificed twelve hours later
Procedure: To validate the impact of the compounds on relevant conditions in rodents, a short-term experiment was performed to see whether chlorpromazine might reduce SOX9 target gene expression in vivo. […] Twelve hours later the rats were sacrificed and RNA was isolated from a 5 mm segment of their injured cords centered on the lesion. […] Specifically, the decrease in the expression of GFAP indicates a lower level of astrocyte activation.
Twelve hours later the rats were sacrificed and RNA was isolated from a 5 mm segment of their injured cords centered on the lesion.

[2] = tested on: rats subject to spinal cord injury; test: Behavioral testing (BBB scale) after spinal cord injury; type: in vivo; conditions: rat SCI, 0.35 mg/ml and 3.5 mg/ml for 7 days via intrathecal miniosmotic pump; saline controls no improvement
Procedure: As examples of the general utility of chemical compounds for general CNS damage and repair, chlorpromazine was assessed in rodent models of spinal cord injury and stroke (MCAO). […] Briefly, rats were subject to spinal cord injury as described and administered chlropromzaine at 0.35 mg/ml and 3.5 mg/ml for 7 days via the intrathecal miniosmotic pump. At 7 days, 4 rats were assessed for behavioral recovery, prior to being sacrificed for gene expression analyses as described above.
In these studies rats (n=16 per group) will receive the SOX9 inhibitor for 6 weeks at which time half of the animals will be processed for SOX9 target gene expression by Q-PCR (as described above) and half will be processed for immunohistochemistry. […] Locomotor recovery, chronic pain syndromes and autonomic function will be assessed in treated and control mice. Motor function will be evaluated once per week using the Basso, Beattie and Bresnahan (BBB) scale for scoring hind limb function (Basso 1995). The presence of mechanical allodynia (a pain syndrome in which innocuous stimuli are perceived as painful) will be assessed once a week by stimulating the backs of the mice with a modified 1.569 mN Semmes Weinstein monofilament at, and rostral, to the level of the injury. […] Finally autonomic function will be assessed by measuring the degree of autonomic dysreflexia in animals before being sacrificed. […]

SOX9 target genes [3] = test: Quantitative RT-PCR of SOX9 target genes after SCI, intrathecal miniosmotic pump delivery for 7 days; type: in vivo, rat; conditions: spinal cord-injured rats, 0.35 mg/ml or 3.5 mg/ml
Procedure: To assess, the intrathecal miniosmotic pump as a means of compound delivery, spinal cord-injured rats received either saline, 0.35 mg/ml or 3.5 mg/ml of chlorpromazine for 7 days. At 7 days the levels of SOX9 target gene expression including GFAP, Brevican, XT-1 and Hapln1 were measured by quantitative RT-PCR as previously described.

SOX9 target genes [4] = test: Real-time PCR of SOX9 target genes after SCI, chlorpromazine i.p. once a day for 7 days; type: in vivo, rat
Procedure: In the context of rodent studies, administration of chlorpromazine was assessed using delivery by intraperitoneal injection (as described in Example 3) and intrathecal miniosmotic pump (as described in Example 5). In summary, three doses of chlorpromazine were given i.p. (2 mg/kg, 4 mg/kg and 6 mg/kg) once a day for 7 days. The rats were then sacrificed and realtime pCR analysis of SOX9, GFAP. XT1, link protein, collagen 2A, aggrecan and brevican was conducted on a spinal cord sample normalizing to 18S.

MCAO mice = test: Grip testing after MCAO (stroke model); type: in vivo; conditions: mouse MCAO, 5 mg/kg daily i.p. from 24 hours post-injury
Procedure: At 3 days and 7 days post-injury, recovery of the damaged side was assessed by grip testing. […] This provides evidence that chemical compounds that modulate SOX9 activity can improve behavioral function following general CNS damage including that associated with spinal cord injury and stroke.
Stroke injury model: A standard MCAO mouse model will be utilized. Briefly, an 11 mm length of monofilament nylon coated with Poly-L-lysine is passed into the common carotid artery, through the internal carotid artery, and past the middle cerebral artery (MCA), effectively occluding the MCA. The loop of suture is tightened down and the mouse allowed to recover in a warm cage. Effective cerebral blood flow reduction is confirmed by a laser-Doppler flowmetry probe (reductions of 70% or better indicating successful occlusion). After 30 minutes for a moderate injury or 60 minutes for a severe injury, the mouse is re-anesthetized and the nylon suture removed allowing reperfusion.

Collagen IV = test: Western blotting of astrocyte culture protein extract probed with anti-collagen IV; type: cell-based, rat; conditions: 20 uM
[5] = rat SCI, i.p. 2, 4 and 6 mg/kg once a day for 7 days, normalized to 18S

**Q.** Which results are given for `CN(C)CCCN1c2ccccc2Sc2ccc(Cl)cc21` [chlorpromazine]?
**A.** CSPG Aggrecan expression (SOX9 target genes [1]): significant decrease; Type II collagen expression (SOX9 target genes [1]): reduced; Type IV collagen expression (SOX9 target genes [1]): reduced; expression of GFAP (SOX9 target genes [1]): decrease; expression of scar generating factors (SOX9 target genes [1]): decreased expression; locomoter function score (BBB scale) [2]: non-zero scores; SOX9 target gene expression including GFAP, Brevican, XT-1 and Hapln1 (SOX9 target genes [3]): improved anticipated outcome at 3.5 mg/ml of drug; impact on target gene expression (SOX9 target genes [4]; at 2 and 4 mg/kg administration, i.p., 7 days): apparent impact on target gene expression; expression of Aggrecan (SOX9 target genes [4]; [5]): reduces the expression; expression of Brevican (SOX9 target genes [4]; [5]): reduces the expression; expression of GFAP (SOX9 target genes [4]; [5]): reduces the expression; expression of HAPLN1 (SOX9 target genes [4]; [5]): reduces the expression; expression of SOX9 (SOX9 target genes [4]; [5]): reduces the expression; expression of XT-1 (SOX9 target genes [4]; [5]): reduces the expression; expression of type 2A Collagen (SOX9 target genes [4]; [5]): reduces the expression; improvement over saline control in grip testing (MCAO mice; 3 days post injury): approximately 15%; improvement over saline control in grip testing (MCAO mice; 7 days post injury): approximately 20%; level of collagen IV (Western blot) (Collagen IV): reduced level of collagen
